Measured values: patent publication US7666587B2, “Method of screening test substances for treating or preventing a disease mediated by plasma cells” (priority 2002, dated 2010)
Residues, ends and D or L forms follow the SMILES beside them. *: point of attachment. Cbz = O=C(OCc1ccccc1)*

Columns and labels:
XBP-1 [1] = assay: Metabolic pulse labelling and immunoprecipitation of endogenous XBP-1 proteins; format: cell-based, mouse
Procedure: Mouse embryonic fibroblasts and ES cells lacking IRE1 activity (IRE1α−/− or IRE1α, IRE1β−/−) and PERK−/−fibroblasts were cultured as previously described (Harding et al., “Regulated Translation Initiation Controls Stress-Induced Gene Expression in Mammalian Cells,” Mol. Cell 6:1099-1108 (2000); and Urano et al., “Coupling of Stress in the Endoplasmic Reticulum to Activation of JNK Protein Kinases by Transmembrane Protein Kinase IRE1,” Science 287:664-666 (2000), which are hereby incorporated by reference in their entirety). Cells were treated with tunicamycin (2.5 μg/ml, Calbiochem), thapsigargin (100 nM, Sigma), dithiothreitol (2 mM, Sigma) or the proteasome inhibitor MG132 (25 μM, Calbiochem) as indicated. To prepare B-cell blasts, cells were teased from crushed adult mouse spleen and cultured in the presence of 25 μg/ml E. coli lipopolysaccharide.
Newly synthesized proteins were labeled in vivo with ^35S-methionine and ^35S-cysteine (500 μCi/ml, Translabel, ICN Biochemicals). After removal of the labeling media cells were washed and incubated in complete media for cold-chase. […] Incorporation of radiolabel was quantified by phosphoimager analysis. In calculating the relative synthesis rates of 54 kDa XBP-1 and 33 kDa XBP-1 the relative incorporation of label was corrected for differences in the content of methionine (7:6) and cysteine (4:3) predicted for the two proteins. […]

XBP-1 [2] = assay: XBP-1 immunoblot during in vitro differentiation of B-cells to plasma cells; format: cell-based; conditions: mouse spleen cells, 25 μg/ml E. coli lipopolysaccharide
Procedure: (§1) Mouse embryonic fibroblasts and ES cells lacking IRE1 activity (IRE1α−/− or IRE1α, IRE1β−/−) and PERK−/−fibroblasts were cultured as previously described (Harding et al., “Regulated Translation Initiation Controls Stress-Induced Gene Expression in Mammalian Cells,” Mol. Cell 6:1099-1108 (2000); and Urano et al., “Coupling of Stress in the Endoplasmic Reticulum to Activation of JNK Protein Kinases by Transmembrane Protein Kinase IRE1,” Science 287:664-666 (2000), which are hereby incorporated by reference in their entirety). Cells were treated with tunicamycin (2.5 μg/ml, Calbiochem), thapsigargin (100 nM, Sigma), dithiothreitol (2 mM, Sigma) or the proteasome inhibitor MG132 (25 μM, Calbiochem) as indicated. […]
(§2) XBP-1 proteins in whole cell extracts were detected by immunoblot of 9% PAGE-SDS using a rabbit polyclonal serum directed to residues 97-267 common to both 54 kDa and 33 kDa XBP-1 proteins (sc-7160, Santa Cruz Biotechnology). XBP-1 proteins in transfected cells were detected by a monoclonal antibody to the FLAG epitope tag (Kodak-IBI). CREB and CHOP were detected as described previously (Harding et al., “Regulated Translation Initiation Controls Stress-Induced Gene Expression in Mammalian Cells,” Mol. Cell 6:1099-1108 (2000), which is hereby incorporated by reference in its entirety).

XBP-1 [3] = assay: Immunoblot of FLAG-tagged XBP-1 in transfected HEK 293T cells; format: cell-based, human; conditions: HEK 293T cells transfected with XBP-1^up
Procedure: as §1, §2

hsp-4::gfp = hsp-4::gfp transcriptional reporter induction in C. elegans (UPR); format: in vivo; conditions: gut and hypodermis; plates containing 5 μg/ml tunicamycin
Source text: A 1.1 kilobase (Kb) fragment of C. elegans genomic DNA immediately 5′ of the predicted initiation ATG of hsp-4 was amplified by PCR and ligated in-frame with GFP in the plasmid pPD95.75 (gift of Andy Fire, Carnegie Institute of Washington). The hsp-4::gfp(zcIs4) V strain was generated by co-injecting the hsp-4::gfp clone with the lin-15 rescuing plasmid, pSK1 (Clark et al., “The Caenorhabditis elegans Locus Lin-15, a Negative Regulator of a Tyrosine Kinase Signaling Pathway, Encodes Two Different Proteins,” Genetics 137:987-997 (1994), which is hereby incorporated by reference in its entirety), into lin-15(n765ts) animals and then integrating the extrachromosomal array with ultraviolet/trimethylpsoralen (UV/TMP) treatment. The F2 progeny of ethylmethane sulphonate (EMS)-treated hsp-4::gfp(zcIs4)V animals were screened for mutants with high levels of GFP expression to identify mutations that constitutively induce the UPR. Several mutations were recovered, including upr-1(zc6)X, which induced a high level of GFP expression in the posterior gut. To isolate mutations that blocked hsp-4::gfp induction, the F2 progeny of EMS-treated hsp-4::gfp(zcIs4) V; upr-1(zc6)X animals were screened for mutants with a reduced GFP signal. The mutations were mapped using standard methods. […]

With `CC(C)C[C@@H](C=O)NC(=O)[C@H](CC(C)C)NC(=O)[C@H](CC(C)C)NC(=O)OCc1ccccc1` [proteasome inhibitor, MG132] (Cbz-Leu-Leu-Leu-aldehyde) the “levels of 33 kDa XBP-1 protein” value (XBP-1 [1]; mouse fibroblasts, MG132 25 μM) was “increased further”.

With bacterial lipopolysaccharide the “induction of 54 kDa XBP-1 protein” value (XBP-1 [2]) was “induced”.

In the case of tunicamycin, the “accumulation of endogenous 54 kDa XBP-1” value (XBP-1 [1]; pulse-labeled wildtype cells, tunicamycin 2.5 μg/ml) was “accumulated to high levels”, the “expression of FLAG-tagged 54 kDa XBP-1 protein” value (XBP-1 [3]) was “expressed high levels of FLAG-tagged 54 kDa protein” and the “hsp-4::gfp expression” value (hsp-4::gfp) was “strongly induced”.
